Experimental data reported in US20260022143A1, “Cyclic Peptide Inhibitors of IL-23” (JANSSEN PHARMACEUTICA NV, priority 2022, published 2026).
Positions of bridges follow the written chain, without caps; N, C: chain ends. Non-standard residues stand in square brackets, D forms with d. Residues, ends and D or L forms follow the SMILES beside them. *: point of attachment. Me3N+(CH2)2O(CH2)2O(CH2)2CO = C[N+](C)(C)CCOCCOCCC(=O)*; X59 = C[N+](C)(C)CCN(CC*)S(=O)(=O)c1ccccc1[N+](=O)[O-]; CH2CH2OCH2CH2OCH2CH2NMe3+ = C[N+](C)(C)CCOCCOCC*; Trp(7-Me) = Cc1cccc2c(C[C@H](N)C(=O)O)c[nH]c12; Dab(NMeAc) = CC(=O)N(C)CC[C@H](N)C(=O)O; 2Nal = N[C@@H](Cc1ccc2ccccc2c1)C(=O)O; AEF = NCCOc1ccc(C[C@H](N)C(=O)O)cc1; 3Pal = N[C@@H](Cc1cccnc1)C(=O)O; N(CH2CH2)2CF2 = FC1(F)CCN(*)CC1; Lys(Me) = CNCCCC[C@H](N)C(=O)O; Pen = CC(C)(S)[C@H](N)C(=O)O; X37 = C[N+]1(C)CCN(CC*)CC1; Thp = NC1(C(=O)O)CCOCC1; X3 = C[N+](C)(C)CCCCC*; X12 = C[N+](C)(C)CCC*; Sar = CNCC(=O)O

How the values were obtained:
IL-23R = molecular target: T1, IL-23R (Homo sapiens, UniProt Q5VWK5); assay: IL23R Reporter Assay; format: cell-based; conditions: HEK293 cells containing IL-23R, IL-12RP1 and STAT-inducible firefly luciferase reporter; 10 ng/mL IL-23 (EC90); 5 h at 37° C.; read-out: IL23R Reporter Assay
T1 construct: host or cells: HEK293
T1 sequence (Q5VWK5 24-629): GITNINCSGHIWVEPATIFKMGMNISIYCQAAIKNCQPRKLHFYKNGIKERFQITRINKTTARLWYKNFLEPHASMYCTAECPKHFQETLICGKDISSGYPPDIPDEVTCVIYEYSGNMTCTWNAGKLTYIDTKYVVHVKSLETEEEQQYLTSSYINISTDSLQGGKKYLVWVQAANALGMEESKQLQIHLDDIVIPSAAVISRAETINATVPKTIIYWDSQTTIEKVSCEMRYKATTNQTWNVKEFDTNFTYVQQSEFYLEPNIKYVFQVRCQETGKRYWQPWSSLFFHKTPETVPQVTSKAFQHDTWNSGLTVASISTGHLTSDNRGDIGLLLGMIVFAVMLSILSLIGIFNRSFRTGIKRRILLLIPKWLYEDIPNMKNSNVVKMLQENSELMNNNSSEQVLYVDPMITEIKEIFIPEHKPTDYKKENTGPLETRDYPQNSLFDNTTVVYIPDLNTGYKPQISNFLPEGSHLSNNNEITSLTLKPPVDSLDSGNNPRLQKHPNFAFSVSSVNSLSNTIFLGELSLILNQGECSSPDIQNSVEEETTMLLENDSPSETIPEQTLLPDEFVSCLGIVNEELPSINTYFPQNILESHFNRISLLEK

[1] = Exposed Polar Surface Area (EPSA); format: physicochemical; conditions: SFC on Chirex 3014 column; sample 1 mM DMSO stock; read-out: EPSA
How it was run: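 Polarity measured by SFC on a Chirex 3014 column (35 °C, 4 mL/min) with methanol/ammonium formate in CO2 as gradient eluent. Retention times were normalised to EPSA (Å^2) against eight reference compounds.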

| IC50 (IL-23R) | EPSA [1] | Compound |
| --- | --- | --- |
| 0.95 nM | 162 A^2 | CC(=O)N(C)CCCC[C@@H]1NC(=O)[C@H](Cc2c[nH]c3c(C)cccc23)NC(=O)[C@H]([C@@H](C)O)NC(=O)[C@H](CC(=O)N(C)C)NC(=O)[C@@H](NC(=O)CCOCCOCC[N+](C)(C)C)C(C)(C)SSC(C)(C)[C@@H](C(=O)N[C@@H](Cc2ccc(OCCN)cc2)C(=O)N[C@@H](Cc2ccc3ccccc3c2)C(=O)NC2(C(=O)N[C@@H](CCCCN(C)C(C)=O)C(=O)N[C@@H](CC(N)=O)C(=O)N[C@@H](Cc3cccnc3)C(=O)N(C)CC(=O)N(C)C)CCOCC2)NC1=O [compound 320, cPEG3aCO-Pen(3)-N(N(Me)2)-T-7MeW-K(NMeAc)-Pen(3)-AEF-2Nal-THP-K(NMeAc)-N-3Pya-Sar-CON(Me)2] ({Me3N+(CH2)2O(CH2)2O(CH2)2CO}-[Pen]D(NMe2)T[Trp(7-Me)][Lys(Me)](Ac)[Pen][AEF][2Nal][Thp][Lys(Me)](Ac)N[3Pal][Sar]-NMe2; disulfide 1-6) |
| 3.8 nM | 165 A^2 | CC(=O)N(C)CCCC[C@@H]1NC(=O)[C@H](Cc2c[nH]c3c(C)cccc23)NC(=O)[C@H]([C@@H](C)O)NC(=O)[C@H](CC(=O)N(C)C)NC(=O)[C@@H](NC(=O)CCOCCOCC[N+](C)(C)C)CSSC[C@@H](C(=O)N[C@@H](Cc2ccc(OCCCCC[N+](C)(C)C)cc2)C(=O)N[C@@H](Cc2ccc3ccccc3c2)C(=O)NC2(C(=O)N[C@@H](CCCCN(C)C(C)=O)C(=O)N[C@@H](CC(N)=O)C(=O)N[C@@H](Cc3cccnc3)C(=O)N(C)CC(=O)N(C)C)CCOCC2)NC1=O [compound 483, cPEG3aCO-C(3)-N(N(Me)2)-T-7MeW-K(NMeAc)-C(3)-TMAPF-2Nal-THP-K(NMeAc)-N-3Pya-Sar-CON(Me)2] ({Me3N+(CH2)2O(CH2)2O(CH2)2CO}-CD(NMe2)T[Trp(7-Me)][Lys(Me)](Ac)CY(X3)[2Nal][Thp][Lys(Me)](Ac)N[3Pal][Sar]-NMe2; disulfide 1-6) |
| 19 nM | 145 A^2 | CC(=O)N(C)CCCC[C@@H]1NC(=O)[C@H](Cc2c[nH]c3c(C)cccc23)NC(=O)[C@H]([C@@H](C)O)NC(=O)[C@H](CC(=O)N(C)C)NC(=O)[C@@H](NC(=O)CCOCCOCC[N+](C)(C)C)C(C)(C)SSC(C)(C)[C@@H](C(=O)N[C@@H](Cc2ccc(OCCC[N+](C)(C)C)cc2)C(=O)N[C@@H](Cc2ccc3ccccc3c2)C(=O)NC2(C(=O)N[C@@H](CCCCN(C)C(C)=O)C(=O)N[C@@H](CC(N)=O)C(=O)N[C@@H](Cc3cccnc3)C(=O)N(C)CC(=O)N(C)C)CCOCC2)NC1=O [compound 229, cPEG3aCO-Pen(3)-N(N(Me)2)-T-7MeW-K(NMeAc)-Pen(3)-TMA3F-2Nal-THP-K(NMeAc)-N-3Pya-Sar-CON(Me)2] ({Me3N+(CH2)2O(CH2)2O(CH2)2CO}-[Pen]D(NMe2)T[Trp(7-Me)][Lys(Me)](Ac)[Pen]Y(X12)[2Nal][Thp][Lys(Me)](Ac)N[3Pal][Sar]-NMe2; disulfide 1-6) |

Second part, the molecule before the results:

| Compound | IC50 (IL-23R) | EPSA [1] |
| --- | --- | --- |
| CC(=O)N(C)CCCC[C@@H]1NC(=O)[C@H](Cc2c[nH]c3c(C)cccc23)NC(=O)[C@H]([C@@H](C)O)NC(=O)[C@H](CC(=O)N(C)C)NC(=O)[C@@H](NC(=O)CCOCCOCC[N+](C)(C)C)C(C)(C)SSC(C)(C)[C@@H](C(=O)N[C@@H](Cc2ccc(OCCN(CC[N+](C)(C)C)S(=O)(=O)c3ccccc3[N+](=O)[O-])cc2)C(=O)N[C@@H](Cc2ccc3ccccc3c2)C(=O)NC2(C(=O)N[C@@H](CCCCN(C)C(C)=O)C(=O)N[C@@H](CC(N)=O)C(=O)N[C@@H](Cc3cccnc3)C(=O)N(C)CC(=O)N(C)C)CCOCC2)NC1=O [compound 206, cPEG3aCO-Pen(3)-N(N(Me)2)-T-7MeW-K(NMeAc)-Pen(3)-AEF(NsCh)-2Nal-THP-K(NMeAc)-N-3Pya-Sar-CON(Me)2] ({Me3N+(CH2)2O(CH2)2O(CH2)2CO}-[Pen]D(NMe2)T[Trp(7-Me)][Lys(Me)](Ac)[Pen]Y(X59)[2Nal][Thp][Lys(Me)](Ac)N[3Pal][Sar]-NMe2; disulfide 1-6) | 2.6 nM | 145 A^2 |
| CC(=O)N(C)CCCC[C@H](NC(=O)C1(NC(=O)[C@H](Cc2ccc3ccccc3c2)NC(=O)[C@H](Cc2ccc(OCCOCCOCC[N+](C)(C)C)cc2)NC(=O)[C@H]2NC(=O)[C@H](CCCCNC(=O)CCOCCOCC[N+](C)(C)C)NC(=O)[C@H](Cc3c[nH]c4c(C)cccc34)NC(=O)[C@H]([C@@H](C)O)NC(=O)[C@H](CC(=O)N(C)C)NC(=O)[C@@H](NC(=O)CCOCCOCC[N+](C)(C)C)C(C)(C)SSC2(C)C)CCOCC1)C(=O)N[C@@H](CC(N)=O)C(=O)N[C@@H](Cc1cccnc1)C(=O)N(C)CC(=O)N(C)C [compound 544, cPEG3aCO-Pen(3)-N(N(Me)2)-T-7MeW-K(cPEG3aCO)-Pen(3)-APEG3F-2Nal-THP-K(NMeAc)-N-3Pya-Sar-CON(Me)2] ({Me3N+(CH2)2O(CH2)2O(CH2)2CO}-[Pen]D(NMe2)T[Trp(7-Me)]K(Me3N+(CH2)2O(CH2)2O(CH2)2CO)[Pen]Y(CH2CH2OCH2CH2OCH2CH2NMe3+)[2Nal][Thp][Lys(Me)](Ac)N[3Pal][Sar]-NMe2; disulfide 1-6) | 2 nM | 157 A^2 |
| CC(=O)N(C)CCCC[C@@H]1NC(=O)[C@H](Cc2c[nH]c3c(C)cccc23)NC(=O)[C@H]([C@@H](C)O)NC(=O)[C@H](CC(=O)N(C)C)NC(=O)[C@@H](NC(=O)CCOCCOCC[N+](C)(C)C)C(C)(C)SSC(C)(C)[C@@H](C(=O)N[C@@H](Cc2ccc(OCCN3CC[N+](C)(C)CC3)cc2)C(=O)N[C@@H](Cc2ccc3ccccc3c2)C(=O)NC2(C(=O)N[C@@H](CCCCN(C)C(C)=O)C(=O)N[C@@H](CC(N)=O)C(=O)N[C@@H](Cc3cccnc3)C(=O)N(C)CC(=O)N(C)C)CCOCC2)NC1=O [compound 193, cPEG3aCO-Pen(3)-N(N(Me)2)-T-7MeW-K(NMeAc)-Pen(3)-4DMPzEF-2Nal-THP-K(NMeAc)-N-3Pya-Sar-CON(Me)2] ({Me3N+(CH2)2O(CH2)2O(CH2)2CO}-[Pen]D(NMe2)T[Trp(7-Me)][Lys(Me)](Ac)[Pen]Y(X37)[2Nal][Thp][Lys(Me)](Ac)N[3Pal][Sar]-NMe2; disulfide 1-6) | 40 nM | 135 A^2 |
| CC(=O)N(C)CC[C@H](NC(=O)C1(NC(=O)[C@H](Cc2ccc3ccccc3c2)NC(=O)[C@H](Cc2ccc(OCCN)cc2)NC(=O)[C@H]2NC(=O)[C@H](CCC(=O)N(C)C)NC(=O)[C@H](Cc3c[nH]c4c(C)cccc34)NC(=O)[C@H]([C@@H](C)O)NC(=O)[C@H](CC(=O)N(C)C)NC(=O)[C@@H](NC(=O)CCOCCOCC[N+](C)(C)C)C(C)(C)SSC2(C)C)CCOCC1)C(=O)N[C@@H](CC(N)=O)C(=O)N[C@@H](Cc1cccnc1)C(=O)N(C)CC(=O)N(C)C [compound 159, cPEG3aCO-Pen(3)-N(N(Me)2)-T-7MeW-Q(N(Me)2)-Pen(3)-AEF-2Nal-THP-Dab(NMeAc)-N-3Pya-Sar-CON(Me)2] ({Me3N+(CH2)2O(CH2)2O(CH2)2CO}-[Pen]D(NMe2)T[Trp(7-Me)]E(NMe2)[Pen][AEF][2Nal][Thp][Dab(NMeAc)]N[3Pal][Sar]-NMe2; disulfide 1-6) | 1.8 nM | 149 A^2 |
| CC(=O)NCCCC[C@@H]1NC(=O)[C@H](Cc2c[nH]c3c(C)cccc23)NC(=O)[C@H]([C@@H](C)O)NC(=O)[C@H](CC(N)=O)NC(=O)[C@@H](NC(C)=O)C(C)(C)SSC(C)(C)[C@@H](C(=O)N[C@@H](Cc2ccc(OCCN)cc2)C(=O)N[C@@H](Cc2ccc3ccccc3c2)C(=O)NC2(C(=O)N[C@@H](CCC(=O)O)C(=O)N[C@@H](CC(N)=O)C(=O)N[C@@H](Cc3cccnc3)C(=O)N(C)CC(=O)N3CCC(F)(F)CC3)CCOCC2)NC1=O [compound 136] (Ac-[Pen]NT[Trp(7-Me)]K(Ac)[Pen][AEF][2Nal][Thp]EN[3Pal][Sar]-{N(CH2CH2)2CF2}; disulfide 1-6 (inferred)) | 2.6 nM | 169 A^2 |
| CC(=O)NCCCC[C@@H]1NC(=O)[C@H](Cc2c[nH]c3c(C)cccc23)NC(=O)[C@H]([C@@H](C)O)NC(=O)[C@H](CC(=O)N(C)C)NC(=O)[C@@H](NC(=O)CCOCCOCC[N+](C)(C)C)C(C)(C)SSC(C)(C)[C@@H](C(=O)N[C@@H](Cc2ccc(OCCCCC[N+](C)(C)C)cc2)C(=O)N[C@@H](Cc2ccc3ccccc3c2)C(=O)NC2(C(=O)N[C@@H](CCN(C)C(C)=O)C(=O)N[C@@H](CC(N)=O)C(=O)N[C@@H](Cc3cccnc3)C(=O)N(C)CC(=O)N(C)C)CCOCC2)NC1=O [compound 308, cPEG3aCO-Pen(3)-N(N(Me)2)-T-7MeW-K(Ac)-Pen(3)-TMAPF-2Nal-THP-Dab(NMeAc)-N-3Pya-Sar-CON(Me)2] ({Me3N+(CH2)2O(CH2)2O(CH2)2CO}-[Pen]D(NMe2)T[Trp(7-Me)]K(Ac)[Pen]Y(X3)[2Nal][Thp][Dab(NMeAc)]N[3Pal][Sar]-NMe2; disulfide 1-6) | 2 nM | 154 A^2 |
